# Values joined by “and” are separate entries in the source; they are usually repeats but may differ in a detail not shown here. Identical values can stand only once. Like-named read-outs stand apart in the source and are kept apart here.
# Key:
# [1] = Cell viability of RBL-2H3 cells (parallel MTT); type: cell-based, rat; conditions: rat
# Protocol: (§1) The anti-allergy assay was based mostly on the methods described by Zhu et al. and Yun et al. with slight modification. Rat basophilic leukemia (RBL-2H3) cells were obtained from the Riken Bio-resource Center Cell Bank (Tsukuba, Japan). RBL-2H3 cells were incubated in EMEM medium containing 10% FBS and 1% antibiotics–antimycotics at 37 °C. The cells were seeded on a 96-well plate (2 × 10^5 cells/well). After 24 h of incubation, the medium was supplemented with 0.5 μg/mL anti-DNP (dinitrophenol) mouse immunoglobulin E (IgE) (Sigma-Aldrich). After an additional 24 h of incubation, the medium was replaced with 100 μL of Tyrode buffer. The sample dissolved in DMSO (<0.5% per well) was added, and the cell plate was incubated again for 30 min, then replaced with 100 μL of tyrode buffer containing 50 μg/mL DNP-bovine serum albumin (BSA) (Invitrogen, Carlsbad, CA, USA). After 1 h of incubation, 50 μL of the supernatant was collected from each well and mixed with 50 μL of substrate solution (p-nitrophenyl-N-acetyl-β-glucosaminide, 2 mM; Sigma-Aldrich) in a new 96-well plate. The mixture was incubated at room temperature on a shaker for 3 h. Finally, 100 μL of stop solution was added, and the absorbance was read at 405 nm. A parallel MTT experiment was performed to measure the cell viability. The MTT experiment was done exactly as described.
# [2] = tested on: Propionibacterium acnes; assay: Anti-bacterial assay (growth inhibition, MIC/MBC by broth microdilution); type: cell-based; conditions: for inhibition at 100 µg/mL: concentration 100 μg/mL, read-out: Inhibition Rate (P. acnes growth)
# Protocol: The antibacterial assay was based mostly on the methods described by Tanaka et al. with slight modification. Propionibacterium acne (NBRC 107605) was used for the antibacterial assay. A single colony of the test strain was taken and 5 mL of Gifu anaerobic medium (GAM) broth (Nissui, Tokyo) was added to it. This culture was incubated at 37 °C for 30 h. It was then added to the bacterial suspension to prepare a bacterial concentration at 10^5 CFU/mL. The bacterial solution was used for the subsequent antibacterial assay. Each compound was dissolved in DMSO, and benzalkonium chloride (Wako) was used as a positive control. The plate was incubated at 37 °C for 30 h. Finally, bacterial growth was measured by a microplate reader at 630 nm. The MIC and MBC were evaluated by the standard broth microdilution method.
# [3] = tested on: B16 melanoma cells; assay: Anti-melanogenesis assay (melanin content); type: cell-based, mouse; conditions: for S.I (selectivity index, CC50 value/IC50 value) / IC50: B16 melanoma cells; for inhibition at 2.5 µg/mL: 2.5 μg/ml; for inhibition at 5 µg/mL: 5 μg/ml; for inhibition at 10 µg/mL: 10 μg/ml
# Protocol: (§2) This assay was performed as described by Arung et al.. The mouse melanoma cell line B16 was obtained from the Riken Bioresource Center Cell Bank (Tsukuba, Japan). The B16 melanoma cells were maintained in Eagle’s Minimal Essential Medium (EMEM, Nissui Chemical, Tokyo) supplemented with 10% (v/v) fetal bovine serum (FBS; Gibco, Carlsbad, CA, USA) and 0.09 mg/mL theophylline (Sigma-Aldrich, St. Louis, MO, USA). […] After 24 h, test samples were dissolved in DMSO (<0.2% per well) and sample solution were added to each well. Arbutin (Tokyo Kasei Kogyo, Tokyo) was used as a positive control. The cells were incubated for an additional 48 h, and then the medium was replaced with fresh medium containing each sample again. After 24 h, the melanin content and the cell viability were measured using a microplate reader (BioTek-ELX800, BioTek Instruments, Winooski, VT, USA) at 405 nm and 570 nm, respectively. Cell viability was measured using the MTT (3-(4,5-dimethylthiazol-2-yl)-2,5-diphenyltetrazolium bromide) method.
# [4] = Cell viability of B16 melanoma cells (MTT); conditions: mouse
# Protocol: as §2
# [5] = tested on: B16 melanoma cells; assay: Cell viability of B16 melanoma cells (MTT); conditions: B16 cells
# Protocol: as §2
# [6] = tested on: RBL-2H3 cells; assay: β-hexosaminidase release from IgE-stimulated RBL-2H3 mast cells; type: cell-based, rat; conditions: Rattus norvegicus; for inhibition at 25 µg/mL: 25 μg/mL
# Protocol: as §1
# [7] = tested on: mushroom tyrosinase; assay: Tyrosinase inhibition assay; type: biochemical
# Protocol: Tyrosinase inhibition activity was evaluated by using L-tyrosine and L-DOPA as substrates, as described. Briefly, 333 μL of 2.5 mM L-tyrosine or L-DOPA solution (Sigma-Aldrich) was mixed with 600 μL of 0.1 M phosphate buffer (pH 6.8) and incubated at 25 °C. Then, 33 μL of the sample solution (dissolved in DMSO in various concentrations) and 33 μL of 1380 units/mL mushroom tyrosinase (Sigma-Aldrich) were added to the mixture. The optical density was measured at 475 nm up to the appropriate time. Kojic acid (Sigma-Aldrich) was used as the positive control; the final concentration is 3.3 μg/mL.
# [8] = tested on: inflammation induced by 12-O-tetradecanoylphorbol-13-acetate (TPA); parameters: method as in PMID 16204964, PMID 14745168; conditions: mice; cited from earlier work
# [9] = tested on: Epstein–Barr virus early antigen; parameters: method as in PMID 16204964, PMID 14745168; conditions: cited from earlier work
# [10] = Mus musculus, B16 cells, read-out: Inhibition rate (100% − melanin synthesis)
# [11] = Mus musculus, read-out: IC50 (melanin synthesis)
# [12] = Mus musculus, read-out: IC50 melanin
# [13] = RBL-2H3, read-out: Inhibition Rate (β-hexosaminidase release)
SMILES,inhibition at 100 µg/mL ([2]; Cutibacterium acnes) [%],"S.I (selectivity index, CC50 value/IC50 value) [3]","inhibition at 2.5 µg/mL [3, 10] [%]","inhibition at 5 µg/mL [3, 10] [%]","inhibition at 10 µg/mL [3, 10] [%]","IC50 [3, 11] [µM]","IC50 [3, 12] [µg/mL]",CC50 at 72 h [4],Inhibition rate (100% − cell viability) ([5]; 2.5 μg/ml) [%],Inhibition rate (100% − cell viability) ([5]; 5 μg/ml) [%],Inhibition rate (100% − cell viability) ([5]; 10 μg/ml) [%],Inhibition rate (100% − cell viability) ([5]; 20 μg/ml) [%],"inhibition at 25 µg/mL [6, 13] [%]",further results
"C=C(C)[C@@H]1CC[C@]2(C(=O)O)CC[C@]3(C)[C@H](CC[C@@H]4[C@@]5(C)CC[C@H](O)C(C)(C)[C@@H]5CC[C@]43C)[C@@H]12 [Compound 4, Betulinic acid]",< 0,1.4,44.8 ± 1.4,49.7 ± 3.1,54 ± 3.3,11.8,5.3,7.6 µg/mL and 16.7 µM,20.8 ± 5.2,35.9 ± 5.2,58.4 ± 14.1,68.1 ± 11.4,29.4 ± 8.1,"viability at 25 μg/ml ([1]; 25 μg/ml, RBL-2H3 cells, read-out: Cell viability): 97.9 ± 10.6%; inhibition at 0.5 µg/mL ([3]; Mus musculus, 0.5 μg/ml, B16 cells, read-out: Inhibition rate (100% − melanin synthesis)): 23.2 ± 1.4%; inhibition at 1 µg/mL ([3]; Mus musculus, 1 μg/ml, B16 cells, read-out: Inhibition rate (100% − melanin synthesis)): 35.4 ± 0.5%; Inhibition rate (100% − cell viability) ([5]; 1 μg/ml): 1.2 ± 12.0%; inhibitory effect on tyrosinase (in words) ([7]; L-DOPA as substrate): no inhibitory effect; inhibitory activity on tyrosinase (in words) ([7]; L-tyrosine as substrate, relatively high concentrations): moderate inhibitory activity"
"C[C@@H]1CC[C@]2(C(=O)O)CC[C@]3(C)C(=CC[C@@H]4[C@@]5(C)C[C@@H](O)[C@@H](O)C(C)(C)[C@@H]5CC[C@]43C)[C@@H]2[C@]1(C)O [Compound 12, euscaphic acid]",98.5 ± 1.3,0.7,0,0,35 ± 3.6,34,16.6,12.5 µg/mL and 25.6 µM,0.0 ± 6.9,0.0 ± 6.6,44.9 ± 2.7,91.1 ± 1.0,74.5 ± 1.3,"inhibitory activity against TPA-induced inflammation (in words) [8]: significant inhibitory activity; viability at 25 μg/ml [1]: 93.9 ± 7.3%; MBC ([2]; Cutibacterium acnes, P. acnes, broth microdilution, read-out: MBC): 50 µg/mL; MIC ([2]; Cutibacterium acnes, P. acnes, broth microdilution, read-out: MIC): 50 µg/mL; MIC ([2]; P. acnes, broth microdilution): 50/50 μg/mL; activity against P. acnes (in words) ([2]; at their maximum solubility): active; inhibitory activity against TPA-induced Epstein–Barr virus early antigen activation (in words) [9]: significant inhibitory activity; inhibition at 20 µg/mL ([3]; Mus musculus, 20 μg/ml, B16 cells, read-out: Inhibition rate (100% − melanin synthesis)): 58.8%; inhibition at 1 µg/mL ([6]; RBL-2H3, 1 μg/mL, read-out: Inhibition Rate (β-hexosaminidase release)): 10.4 ± 10.8%; inhibition at 5 µg/mL ([6]; RBL-2H3, 5 μg/mL, read-out: Inhibition Rate (β-hexosaminidase release)): 37.7 ± 3.9%; inhibition at 12.5 µg/mL ([6]; RBL-2H3, 12.5 μg/mL, read-out: Inhibition Rate (β-hexosaminidase release)): 67 ± 1.8%; IC50 ([6]; IgE-stimulated RBL-2H3 cells, read-out: IC50 (β-hexosaminidase release)): 15.8 µM"

# Source: PMC5454942, “The Potential of Triterpenoids from Loquat Leaves (Eriobotrya japonica) for Prevention and Treatment of Skin Disorder” (International Journal of Molecular Sciences, 2017)
